The compounds below were run against MMP-13CD (catalytic domain of collagenase 3) (Homo sapiens, UniProt P45452) (assay: biochemical).
Work on `Cn1c(=O)n(CCc2ccccc2)c(=O)c2cc(C(=O)NCc3ccc4c(c3)OCO4)ccc21` [1-Methyl-2,4-dioxo-3-phenethyl-1,2,3,4-tetrahydroquinazoline-6-carboxylic acid (benzo[1,3]dioxol-5-ylmethyl)amide] yielded an IC50 of 0.7 µM.
`Cn1c(=O)n(Cc2cccs2)c(=O)c2cc(C(=O)NCc3ccccc3)ccc21` [1-Methyl-2,4-dioxo-3-thien-2-ylmethyl-1,2,3,4-tetrahydroquinazoline-6-carboxylic acid benzylamide] showed an IC50 of 0.096 µM.
With `O=C(NCc1ccc2c(c1)OCO2)c1ccc2[nH]c(=O)n(Cc3ccncc3)c(=O)c2c1` [2,4-Dioxo-3-pyrid-4-ylmethyl-1,2,3,4-tetrahydroquinazoline-6-carboxylic acid (benzo[1,3]dioxol-5-ylmethyl)amide] the IC50 was 0.051 µM.
In the case of `O=C(NCc1ccccc1)c1ccc2[nH]c(=O)n(Cc3cccs3)c(=O)c2c1` [2,4-Dioxo-3-thien-2-ylmethyl-1,2,3,4-tetrahydroquinazoline-6-carboxylic acid benzylamide], the IC50 is reported as 0.3 µM.
In the case of `O=C(NCc1ccc2c(c1)OCO2)c1ccc2c(c1)c(=O)n(Cc1ccccc1)c(=O)n2CC1CC1` [3-Benzyl-1-cyclopropylmethyl-2,4-dioxo-1,2,3,4-tetrahydroquin-azoline-6-carboxylic acid (benzo[1,3]dioxol-5-ylmethyl)amide], the IC50 is reported as 0.157 µM.
`CC(C)Cn1c(=O)n(Cc2ccccc2)c(=O)c2cc(C(=O)NCc3ccc4c(c3)OCO4)ccc21` [3-Benzyl-1-isobutyl-2,4-dioxo-1,2,3,4-tetrahydroquinazoline-6-carboxylic acid (benzo[1,3]dioxol-5-ylmethyl)amide] was tested, and the IC50 was 0.6 µM.
Compound `Cn1c(=O)n(Cc2ccccc2)c(=O)c2cc(C(=O)NCc3ccncc3)ccc21` [3-Benzyl-1-methyl-2,4-dioxo-1,2,3,4-tetrahydroquinazoline-6-carboxylic acid (4-pyridylmethyl)amide] has an IC50 of 0.051 µM.
`Cn1c(=O)n(Cc2ccccc2)c(=O)c2cc(C(=O)NCc3ccccc3)ccc21` [3-Benzyl-1-methyl-2,4-dioxo-1,2,3,4-tetrahydroquinazoline-6-carboxylic acid benzylamide] was tested, and the IC50 was 0.057 µM.
Work on `O=C(NCc1ccc(Cl)cc1)c1ccc2[nH]c(=O)n(Cc3ccccc3)c(=O)c2c1` [3-Benzyl-2,4-dioxo-1,2,3,4-tetrahydroquinazoline-6-carboxylic acid 4-chlorobenzylamide] yielded an IC50 of 0.167 µM.
With `COc1ccc(CNC(=O)c2ccc3[nH]c(=O)n(Cc4ccccc4)c(=O)c3c2)cc1` [3-Benzyl-2,4-dioxo-1,2,3,4-tetrahydroquinazoline-6-carboxylic acid 4-methoxybenzylamide] the IC50 was 0.049 µM.
With `Cc1ccc(CNC(=O)c2ccc3[nH]c(=O)n(Cc4ccccc4)c(=O)c3c2)cc1` [3-Benzyl-2,4-dioxo-1,2,3,4-tetrahydroquinazoline-6-carboxylic acid 4-methylbenzylamide] the IC50 was 1.32 µM.
Work on `O=C(NCc1cccs1)c1ccc2[nH]c(=O)n(Cc3ccccc3)c(=O)c2c1` [3-Benzyl-2,4-dioxo-1,2,3,4-tetrahydroquinazoline-6-carboxylic acid (2-thienylmethyl)amide] yielded an IC50 of 1.87 µM.
Work on `O=C(NCc1cccnc1)c1ccc2[nH]c(=O)n(Cc3ccccc3)c(=O)c2c1` [3-Benzyl-2,4-dioxo-1,2,3,4-tetrahydroquinazoline-6-carboxylic acid (3-pyridylmethyl)amide] yielded an IC50 of 0.366 µM.
`O=C(NCc1ccncc1)c1ccc2[nH]c(=O)n(Cc3ccccc3)c(=O)c2c1` [3-Benzyl-2,4-dioxo-1,2,3,4-tetrahydroquinazoline-6-carboxylic acid (4-pyridylmethyl)amide] was tested, and the IC50 was 0.183 µM.
In the case of `O=C(OCc1ccncc1)c1cnc2[nH]c(=O)n(Cc3ccccc3)c(=O)c2c1` [4-Pyridylmethyl 3-benzyl-2,4-dioxo-1,2,3,4-tetrahydropyrido[2,3-d]-pyrimidine-6-carboxylate], the IC50 is reported as 0.062 µM.
Work on `O=C(OCc1ccccc1)c1ccc2c(c1)c(=O)n(Cc1ccncc1)c(=O)n2Cc1ccccc1` [Benzyl 1-benzyl-2,4-dioxo-3-pyrid-4-ylmethyl-1,2,3,4-tetrahydroquin-azoline-6-carboxylate] yielded an IC50 of 1.21 µM.
`O=C(OCc1ccccc1)c1cnc2[nH]c(=O)n(Cc3ccccc3)c(=O)c2c1` [Benzyl 3-benzyl-2,4-dioxo-1,2,3,4-tetrahydropyrido[2,3-d]pyrimidine-6-carboxylate] showed an IC50 of 0.096 µM.
Compound `COC(=O)c1ccc(CNC(=O)c2ccc3c(c2)c(=O)n(Cc2ccccc2)c(=O)n3C)cc1` [Methyl 4-({[1-(3-benzyl-1-methyl-2,4-dioxo-1,2,3,4-tetrahydroquin-azolin-6-yl)methanoyl]amino}methyl)benzoate] has an IC50 of 2.25 µM.
Work on `O=C(NCc1ccccc1)c1ccc2[nH]c(=O)n(Cc3ccccc3)c(=O)c2c1` [Synthesis Example 22, 3-Benzyl-2,4-dioxo-1,2,3,4-tetrahydroquinazoline-6-carboxylic acid benzylamide] yielded an IC50 of 0.193 µM.
Work on `O=C(NCc1ccc2c(c1)OCO2)c1ccc2[nH]c(=O)n(Cc3ccccc3)c(=O)c2c1` [Synthesis Example 23, 3-Benzyl-2,4-dioxo-1,2,3,4-tetrahydroquinazoline-6-carboxylic acid (benzo[1,3]dioxol-5-ylmethyl)amide] yielded an IC50 of 0.021 µM.
Work on `Cn1c(=O)n(Cc2ccccc2)c(=O)c2cc(C(=O)NCc3ccc4c(c3)OCO4)ccc21` [Synthesis Example 24] yielded an IC50 of 0.005 µM.
Compound `COc1cc(CNC(=O)c2ccc3c(c2)c(=O)n(Cc2ccccc2)c(=O)n3C)ccc1O` [Synthesis Example 25, 3-Benzyl-1-methyl-2,4-dioxo-1,2,3,4-tetrahydroquinazoline-6-carboxylic acid 4-hydroxy-3-methoxybenzylamide] has an IC50 of 0.051 µM.
Compound `COc1ccc(CNC(=O)c2ccc3c(c2)c(=O)n(Cc2ccccc2)c(=O)n3C)cc1` [Synthesis Example 26, 3-Benzyl-1-methyl-2,4-dioxo-1,2,3,4-tetrahydroquinazoline-6-carboxylic acid 4-methoxybenzylamide] has an IC50 of 0.012 µM.
In the case of `COc1ccc(Cn2c(=O)[nH]c3ccc(C(=O)NCc4ccc5c(c4)OCO5)cc3c2=O)cc1` [Synthesis Example 27, 3-(4-Methoxybenzyl)-2,4-dioxo-1,2,3,4-tetrahydroquinazoline-6-carboxylic acid (benzo[1,3]dioxol-5-ylmethyl)amide], the IC50 is reported as 0.015 µM.
`COc1ccc(Cn2c(=O)c3cc(C(=O)NCc4ccc5c(c4)OCO5)ccc3n(C)c2=O)cc1` [Synthesis Example 28, 3-(4-Methoxybenzyl)-1-methyl-2,4-dioxo-1,2,3,4-tetrahydroquinazoline-6-carboxylic acid (benzo[1,3]dioxol-5-ylmethyl)amide] was tested, and the IC50 was 0.009 µM.
For `COc1ccc(CNC(=O)c2ccc3c(c2)c(=O)n(Cc2ccc(OC)cc2)c(=O)n3C)cc1` [Synthesis Example 29, 3-(4-Methoxybenzyl)-1-methyl-2,4-dioxo-1,2,3,4-tetrahydroquinazoline-6-carboxylic acid 4-methoxybenzylamide], the IC50 was 0.01 µM.
For `O=C(NCc1ccc2c(c1)OCO2)c1ccc2[nH]c(=O)n(Cc3cccs3)c(=O)c2c1` [Synthesis Example 30, 2,4-Dioxo-3-(thien-2-ylmethyl)-1,2,3,4-tetrahydroquinazoline-6-carboxylic acid (benzo[1,3]dioxol-5-ylmethyl)amide], the IC50 was 0.029 µM.

From patent publication US20050004126A1 (priority 2001, published 2005)
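Note: inhibition of enzymatic thiopeptolide substrate cleavage (100 µM) in pH 6.0 MES buffer with CaCl2 and DTNB, comparing hydrolysis with versus without inhibitor.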
